Laboratory results reported in publication PMC3933693, “Novel Inhibitors of Mitochondrial sn-Glycerol 3-phosphate Dehydrogenase” (PLoS ONE, 2014).

Assays:
[1] = target: T1, mGPDH (Rattus norvegicus, UniProt P35571); assay: Superoxide/H2O2 production by mGPDH in isolated skeletal muscle mitochondria (Amplex UltraRed); type: biochemical; settings: for mGPDH (% change from DMSO): primary screen, ∼2.5 µM, average of duplicates, 16.7 mM glycerol phosphate, no added calcium; for IC50: Fig. 4 structure/activity microplate assay, 0.08–80 µM, estimated, means of two replicates, read-out: mGPDH H2O2 production IC50; for inhibition at 80 µM: read-out: mGPDH H2O2 production (% change at 80 μM)
T1 construct: Activity of mGPDH in frozen-thawed skeletal muscle mitochondria was measured; from tissue; host or cells: skeletal muscle mitochondria
T1 sequence (P35571 43-727): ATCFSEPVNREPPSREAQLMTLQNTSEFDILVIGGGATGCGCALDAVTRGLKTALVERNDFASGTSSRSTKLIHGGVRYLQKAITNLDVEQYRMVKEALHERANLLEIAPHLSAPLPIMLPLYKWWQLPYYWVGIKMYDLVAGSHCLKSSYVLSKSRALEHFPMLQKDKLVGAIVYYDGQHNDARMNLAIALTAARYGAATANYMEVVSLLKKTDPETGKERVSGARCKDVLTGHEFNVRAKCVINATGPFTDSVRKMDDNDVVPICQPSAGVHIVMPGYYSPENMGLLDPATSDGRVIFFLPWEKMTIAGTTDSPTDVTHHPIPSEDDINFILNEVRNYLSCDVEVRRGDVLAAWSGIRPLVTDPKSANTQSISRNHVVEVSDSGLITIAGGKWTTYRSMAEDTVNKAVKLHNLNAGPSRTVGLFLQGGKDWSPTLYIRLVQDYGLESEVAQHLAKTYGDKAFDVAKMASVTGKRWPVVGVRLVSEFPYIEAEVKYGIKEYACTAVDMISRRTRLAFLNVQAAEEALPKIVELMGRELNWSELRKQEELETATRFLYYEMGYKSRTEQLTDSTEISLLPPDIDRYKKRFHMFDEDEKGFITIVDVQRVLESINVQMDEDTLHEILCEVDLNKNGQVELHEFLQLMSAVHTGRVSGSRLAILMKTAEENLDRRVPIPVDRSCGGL

[2] = system: flavin mononucleotide site of complex I (site IF) plus matrix NAD-linked dehydrogenases (site IF/DH); assay: Site-specific H2O2 production from site IF/DH in skeletal muscle mitochondria; type: biochemical, rat; settings: primary screen, ∼2.5 µM, average of duplicates
Procedure: (§1) Superoxide was measured as H2O2 after dismutation by endogenous or exogenous superoxide dismutase. Rates of total superoxide/H2O2 production were measured fluorimetrically using Amplex UltraRed in the presence of exogenous superoxide dismutase and horseradish peroxidase in a Varian Cary Eclipse fluorimeter as previously described. Rates of production from specific sites were determined as previously described using the following eight conditions: flavin mononucleotide site of complex I (site IF) plus matrix NAD-linked dehydrogenases (collectively "site IF/DH") with 5 mM glutamate, 5 mM malate, and 4 µM rotenone; ubiquinone-binding site of complex I (site IQ) with either 0.5 or 5 mM succinate; flavin site of complex II (site IIF) with either 15 µM palmitoylcarnitine, 2.5 µM antimycin A, and 2 µM myxothiazol or 0.5 mM succinate, 4 µM rotenone, 2.5 µM antimycin A, and 2 µM myxothiazol, [31]; mGPDH with 1.7 mM glycerol phosphate, 4 µM rotenone, 2.5 µM antimycin A, 2 µM myxothiazol, 1 mM malonate, and 250 nM free calcium; outer ubiquinone-binding site of complex III (site IIIQo) with either 0.5 or 5 mM succinate, 4 µM rotenone and 2.5 µM antimycin A [32]. Candidate small-molecule inhibitors were added prior to the start of measurements and H2O2 calibration curves were performed in the presence of tested compounds.
(§2) 3,200 compounds were tested initially at 2.5 µM (0.025% DMSO final) in duplicate on different plates against a panel of five distinct assays of site-specific superoxide/H2O2 production as described in the previous section with minor changes. […] Endpoint fluorescence was measured on a Perkin Elmer Victor V3 fluorescent plate reader. The fluorescence intensity of each well was normalized as % change from the average of eight DMSO controls on the same plate. Duplicate wells of each of four modulators of mitochondrial metabolism known to inhibit specific sites of superoxide/H2O2 production were included on each plate as positive controls and the resulting fluorescence levels set as −100% change from DMSO controls. Known inhibitors included 20 mM aspartate (for site IF/DH), 1 µM FCCP (for site IQ), 10 mM malonate (for site IIF), and 2 µM myxothiazol (for site IIIQo). The background fluorescence of the FCCP wells in the site IQ assay was used to normalize mGPDH plates run in parallel. To minimize position-dependent effects across each assay plate, Tukey’s two-way median polish was applied to fluorescence values after initial normalization, [36]. Tukey’s polish is an iterative subtraction of the median row and column values from each well’s given row or column. The procedure is repeated until sequential medians for each row and column are zero and positional gradients in fluorescence are eliminated.

[3] = system: ubiquinone-binding site of complex I (site IQ); assay: Site-specific H2O2 production from site IQ in skeletal muscle mitochondria; type: biochemical, rat; settings: 5 mM succinate; for IQ (% change from DMSO): primary screen, ∼2.5 µM, average of duplicates;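 as to all read-outs here: H2O2 from superoxide detected by Amplex UltraRed fluorescence with added superoxide dismutase and horseradish peroxidase, endpoint read 30–40 min after substrate addition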
Procedure: Superoxide was measured as H2O2 after dismutation by endogenous or exogenous superoxide dismutase. Rates of total superoxide/H2O2 production were measured fluorimetrically using Amplex UltraRed in the presence of exogenous superoxide dismutase and horseradish peroxidase in a Varian Cary Eclipse fluorimeter as previously described [27]. Rates of production from specific sites were determined as previously described using the following eight conditions: flavin mononucleotide site of complex I (site IF) plus matrix NAD-linked dehydrogenases (collectively "site IF/DH") with 5 mM glutamate, 5 mM malate, and 4 µM rotenone [28]; ubiquinone-binding site of complex I (site IQ) with either 0.5 or 5 mM succinate [29]; flavin site of complex II (site IIF) with either 15 µM palmitoylcarnitine, 2.5 µM antimycin A, and 2 µM myxothiazol or 0.5 mM succinate, 4 µM rotenone, 2.5 µM antimycin A, and 2 µM myxothiazol [30], [31]; mGPDH with 1.7 mM glycerol phosphate, 4 µM rotenone, 2.5 µM antimycin A, 2 µM myxothiazol, 1 mM malonate, and 250 nM free calcium; outer ubiquinone-binding site of complex III (site IIIQo) with either 0.5 or 5 mM succinate, 4 µM rotenone and 2.5 µM antimycin A [32]. Candidate small-molecule inhibitors were added prior to the start of measurements and H2O2 calibration curves were performed in the presence of tested compounds.
3,200 compounds were tested initially at 2.5 µM (0.025% DMSO final) in duplicate on different plates against a panel of five distinct assays of site-specific superoxide/H2O2 production as described in the previous section with minor changes. […] Endpoint fluorescence was measured on a Perkin Elmer Victor V3 fluorescent plate reader. The fluorescence intensity of each well was normalized as % change from the average of eight DMSO controls on the same plate. Duplicate wells of each of four modulators of mitochondrial metabolism known to inhibit specific sites of superoxide/H2O2 production were included on each plate as positive controls and the resulting fluorescence levels set as −100% change from DMSO controls. Known inhibitors included 20 mM aspartate (for site IF/DH), 1 µM FCCP (for site IQ), 10 mM malonate (for site IIF), and 2 µM myxothiazol (for site IIIQo). The background fluorescence of the FCCP wells in the site IQ assay was used to normalize mGPDH plates run in parallel. To minimize position-dependent effects across each assay plate, Tukey’s two-way median polish was applied to fluorescence values after initial normalization [35], [36]. Tukey’s polish is an iterative subtraction of the median row and column values from each well’s given row or column. The procedure is repeated until sequential medians for each row and column are zero and positional gradients in fluorescence are eliminated.
These 20 compounds were tested in duplicate at 0.08–80 µM (0.1% DMSO final) in microplate format for effects on site-specific H2O2 production as described above. […] Plates were incubated in the dark at room temperature for 30–40 min (H2O2) or 10–15 min (ΔΨm) after the addition of substrate, and endpoint fluorescence was measured on the Victor plate reader. Endpoints were chosen for the H2O2 assays to provide good signal-to-noise ratios and linear rates of change without the indicator dye limiting the reaction.

[4] = target: T2, flavin site of complex II (site IIF) (Rattus norvegicus, UniProt Q920L2); assay: Site-specific H2O2 production from site IIF in skeletal muscle mitochondria; type: biochemical; settings: primary screen, ∼2.5 µM, average of duplicates; palmitoylcarnitine
T2 construct: from tissue; host or cells: skeletal muscle mitochondria
T2 sequence (Q920L2 35-656): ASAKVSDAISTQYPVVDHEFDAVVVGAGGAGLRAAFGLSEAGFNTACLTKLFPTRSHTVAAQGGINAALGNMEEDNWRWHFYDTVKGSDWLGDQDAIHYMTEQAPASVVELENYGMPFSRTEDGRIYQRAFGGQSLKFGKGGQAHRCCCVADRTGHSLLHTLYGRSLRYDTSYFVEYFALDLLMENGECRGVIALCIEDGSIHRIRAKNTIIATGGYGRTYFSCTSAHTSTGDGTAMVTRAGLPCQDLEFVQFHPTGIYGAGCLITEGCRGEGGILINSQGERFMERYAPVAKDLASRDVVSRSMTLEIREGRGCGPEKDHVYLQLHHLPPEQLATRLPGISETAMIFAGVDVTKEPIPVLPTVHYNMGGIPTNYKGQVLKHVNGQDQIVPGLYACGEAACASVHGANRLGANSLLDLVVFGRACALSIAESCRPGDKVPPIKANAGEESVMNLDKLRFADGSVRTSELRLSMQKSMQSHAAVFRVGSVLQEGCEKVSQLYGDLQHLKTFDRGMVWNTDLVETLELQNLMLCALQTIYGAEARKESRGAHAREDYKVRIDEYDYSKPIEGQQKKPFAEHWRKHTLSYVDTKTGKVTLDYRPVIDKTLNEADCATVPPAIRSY
T2 sequence (P21913 31-282 partner): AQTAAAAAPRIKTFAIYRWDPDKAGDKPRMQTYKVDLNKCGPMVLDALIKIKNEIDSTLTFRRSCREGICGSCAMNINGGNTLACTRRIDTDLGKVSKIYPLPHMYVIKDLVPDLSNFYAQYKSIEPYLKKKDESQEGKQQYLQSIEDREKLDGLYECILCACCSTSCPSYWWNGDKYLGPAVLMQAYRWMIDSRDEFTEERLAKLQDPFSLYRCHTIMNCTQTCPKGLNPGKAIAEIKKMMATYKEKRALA
T2 sequence (Q641Z9 30-169 partner limits assumed): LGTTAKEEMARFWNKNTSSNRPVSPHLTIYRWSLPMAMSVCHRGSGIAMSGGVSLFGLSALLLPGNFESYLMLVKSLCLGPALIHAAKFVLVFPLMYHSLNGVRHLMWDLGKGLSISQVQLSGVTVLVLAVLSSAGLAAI
T2 sequence (Q6PCT8 57-159 partner): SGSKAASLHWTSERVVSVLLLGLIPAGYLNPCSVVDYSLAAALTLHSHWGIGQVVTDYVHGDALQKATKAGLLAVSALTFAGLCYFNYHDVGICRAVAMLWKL
Procedure: as §1, §2

[5] = target: T3, outer ubiquinone-binding site of complex III (site IIIQo) (Rattus norvegicus, UniProt P00159+P20788); assay: Site-specific H2O2 production from site IIIQo in skeletal muscle mitochondria; type: biochemical; settings: primary screen, ∼2.5 µM, average of duplicates; 5 mM succinate
T3 construct: from tissue; host or cells: skeletal muscle mitochondria
Procedure: as §1, §2

[6] = system: skeletal muscle mitochondria; assay: Mitochondrial membrane potential (ΔΨm, TMRM) powered by glutamate plus malate; type: biochemical, rat; settings: for ΔΨm (% change from DMSO): primary screen, ∼2.5 µM, average of duplicates, glutamate and malate; for ΔΨm with Glu + Mal + Nig (% change at 80 μM) / ΔΨm with Glu + Mal (% change at 80 μM): 5 mM glutamate, 5 mM malate; for ΔΨm with Glu + Mal + Nig (% change at 80 μM): with nigericin; for ΔΨm with Glu + Mal (% change at 80 μM): without nigericin
[7] = system: skeletal muscle mitochondria; assay: Mitochondrial membrane potential (ΔΨm, TMRM) powered by glycerol phosphate; type: biochemical, rat; settings: 80 μM; 16.7 mM glycerol phosphate, 4 µM rotenone, nigericin
Procedure: Mitochondrial membrane potential (ΔΨm) was estimated fluorimetrically as described previously [33] on the Varian fluorimeter, except the potentiometric dye TMRM was used in quench-mode in place of safranine O [34]. […] The effect of putative small-molecule inhibitors was normalized as the % change in fluorescence between vehicle treatment and complete depolarization by the uncoupler carbonyl cyanide-4-(trifluoromethoxy)phenylhydrazone (FCCP, 2 µM) added at the end of each run. When indicated, the K^+/H^+ exchanger nigericin (80 ng ⋅ ml^−1) was added to collapse the pH gradient across the mitochondrial inner membrane (ΔpH) and maximize ΔΨm.
All assays were performed with stirring at 37°C.
Additionally, four microplate assays for ΔΨm were run in parallel to the H2O2 assays. These assays were as described under “Measurement of mitochondrial H2O2 production and membrane potential” except that each substrate condition was assayed in a separate microplate. […] Plates were incubated in the dark at room temperature for 30–40 min (H2O2) or 10–15 min (ΔΨm) after the addition of substrate, and endpoint fluorescence was measured on the Victor plate reader. […] Endpoints for the ΔΨm assays were determined in pilot experiments as the times for TMRM accumulation to reach a steady state. At room temperature, this was typically ∼ 5 min and remained stable for at least 30 min. Endpoint fluorescence values were normalized as described in the previous section with wells containing FCCP serving as positive controls for the ΔΨm assays.

Row | SMILES | mGPDH (% change from DMSO) [1] [%] | IF/DH (% change from DMSO) [2] [%] | IQ (% change from DMSO) [3] [%] | IIF (% change from DMSO) [4] [%] | IIIQo (% change from DMSO) [5] [%] | ΔΨm (% change from DMSO) [6] [%] | IC50 [1] [µM] | inhibition at 80 µM [1] [%] | IQ H2O2 production with 5 mM Suc (% change at 80 μM) [3] [%] | ΔΨm with Glu + Mal + Nig (% change at 80 μM) [6] [%] | ΔΨm with Glu + Mal (% change at 80 μM) [6] [%] | ΔΨm with GP + Nig (% change at 80 μM) [7] [%]
1 | COc1ccc(CNc2cccc(N(C)C)c2)cc1 [compound 5452512] | -29.7 | -33.7 | -34.0 | -24.5 | -33.8 | 0.0119 | – | – | – | – | – | –
2 | COc1ccc(NCC2CCCCC2)cc1 [compound 5454631] | -20.6 | -52.2 | -40.9 | -25.6 | -14.3 | -0.00487 | – | – | – | – | – | –
3 | c1coc(CNc2ccc3c(c2)OCO3)c1 [compound 5457094] | -20.2 | -27.2 | -27.2 | -27.6 | -17.4 | 0.527 | – | – | – | – | – | –
4 | O=C(Nc1ccc(O)cc1)c1ccco1 [compound 5471987] | -26.4 | -52.3 | -9.9 | -28.0 | -8.4 | 0.0125 | – | – | – | – | – | –
5 | Cn1c(/C=C/c2ccc(Cl)cc2)nc2ccccc21 [compound 5663561] | -12.9 | -9.1 | -3.9 | -11.9 | -4.7 | 0.0494 | – | – | – | – | – | –
6 | Nc1nc(-c2ccc(Cl)c(Cl)c2)cs1 [compound 5690819] | -10.3 | -0.9 | -3.1 | -7.3 | -4.6 | 0.636 | – | – | – | – | – | –
7 | O=C(O)CCC(=O)Nc1ccc(-c2nc3ccccc3s2)cc1 [iGP-3] | – | – | – | – | – | – | 15 | 50 | -69 | 20 | 148 | -26
8 | Cc1ccc2[nH]c(-c3ccc(NC(=O)CCC(=O)O)cc3)nc2c1 [iGP-4] | – | – | – | – | – | – | 5 | 69 | -20 | 11 | 49 | -35
9 | O=C(O)CCC(=O)Nc1ccc(-c2nc3cc(C(=O)c4ccccc4)ccc3[nH]2)cc1 [iGP-6] | – | – | – | – | – | – | 3 | 55 | -28 | 17 | 93 | -59
10 | O=C(O)CCC(=O)Nc1ccc(-c2nc3cc(NC(=O)CCC(=O)O)ccc3[nH]2)cc1 [iGP-7] | – | – | – | – | – | – | – | 21 | 3 | 2 | 25 | 4
